Assay results from PubChem BioAssay (NCI).
“And” between values parts separate entries of the source, which are not always exact repeats. Identical values can stand only once.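 Each compound was tested at five concentrations against cells in 96-well plates for 48 hours. GI50: concentration for 50% inhibition of growth. At the TGI there is no net growth.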

Key:
Test in all cases: NCI-60 cell line screen, 48 h
A498 renal = tested on: A498 renal
A549 NSCLC = tested on: A549 NSCLC
ACHN renal = tested on: ACHN renal
CCRF-CEM leukemia = tested on: CCRF-CEM leukemia
COLO 205 colon = tested on: COLO 205 colon
DLD-1 colon = tested on: DLD-1 colon
DMS 114 small cell lung = tested on: DMS 114 small cell lung
DMS 273 small cell lung = tested on: DMS 273 small cell lung
DU-145 prostate = tested on: DU-145 prostate
EKVX NSCLC = tested on: EKVX NSCLC
HCC-2998 colon = tested on: HCC-2998 colon
HCT-15 colon = tested on: HCT-15 colon
HL-60(TB) leukemia = tested on: HL-60(TB) leukemia
HOP-18 NSCLC = tested on: HOP-18 NSCLC
HOP-62 NSCLC = tested on: HOP-62 NSCLC
HS 578T breast = tested on: HS 578T breast
HT29 colon = tested on: HT29 colon
KM12 colon = tested on: KM12 colon
KM20L2 colon = tested on: KM20L2 colon
LOX IMVI melanoma = tested on: LOX IMVI melanoma
LXFL 529 NSCLC = tested on: LXFL 529 NSCLC
M19-MEL melanoma = tested on: M19-MEL melanoma
MALME-3M melanoma = tested on: MALME-3M melanoma
MDA-MB-435 = tested on: MDA-MB-435
MDA-N = tested on: MDA-N
MOLT-4 leukemia = tested on: MOLT-4 leukemia
NCI-H226 lung = tested on: NCI-H226 lung
NCI-H23 lung = tested on: NCI-H23 lung
NCI-H460 lung = tested on: NCI-H460 lung
NCI-H522 lung = tested on: NCI-H522 lung
NCI/ADR-RES ovarian = tested on: NCI/ADR-RES ovarian
OVCAR-3 ovarian = tested on: OVCAR-3 ovarian
OVCAR-4 ovarian = tested on: OVCAR-4 ovarian
OVCAR-5 ovarian = tested on: OVCAR-5 ovarian
OVCAR-8 ovarian = tested on: OVCAR-8 ovarian
RPMI-8226 leukemia = tested on: RPMI-8226 leukemia
RXF 393 renal = tested on: RXF 393 renal
RXF-631 renal = tested on: RXF-631 renal
SF-295 CNS = tested on: SF-295 CNS
SF-539 CNS = tested on: SF-539 CNS
SK-MEL-2 melanoma = tested on: SK-MEL-2 melanoma
SK-MEL-28 melanoma = tested on: SK-MEL-28 melanoma
SK-MEL-5 melanoma = tested on: SK-MEL-5 melanoma
SK-OV-3 ovarian = tested on: SK-OV-3 ovarian
SN12C renal = tested on: SN12C renal
SNB-19 CNS = tested on: SNB-19 CNS
SW-620 colon = tested on: SW-620 colon
TK-10 renal = tested on: TK-10 renal
U251 CNS = tested on: U251 CNS
UACC-257 melanoma = tested on: UACC-257 melanoma
XF 498 CNS = tested on: XF 498 CNS
786-0 renal = tested on: 786-0 renal
CAKI-1 renal = tested on: CAKI-1 renal
HCT-116 colon = tested on: HCT-116 colon
IGROV1 ovarian = tested on: IGROV1 ovarian
K-562 leukemia = tested on: K-562 leukemia
M14 melanoma = tested on: M14 melanoma
SF-268 CNS = tested on: SF-268 CNS
SNB-78 CNS = tested on: SNB-78 CNS
UACC-62 melanoma = tested on: UACC-62 melanoma
UO-31 renal = tested on: UO-31 renal

O=C(NC(=O)c1ccccc1[N+](=O)[O-])Nc1ccc(Oc2ncc(Br)cn2)c(Cl)c1
TGI (A498 renal): 52 nM
GI50 (A549 NSCLC): < 24.8 nM
TGI (A549 NSCLC): > 100000 nM
TGI (ACHN renal): 68.8 nM
GI50 (CCRF-CEM leukemia): < 19.4 nM
GI50 (COLO 205 colon): < 18.8 nM
TGI (COLO 205 colon): 2220 nM
GI50 (DLD-1 colon): < 20.1 nM
GI50 (DMS 114 small cell lung): 3.31 nM
TGI (DMS 273 small cell lung): 21.2 nM
TGI (DU-145 prostate): 90.2 nM
GI50 (EKVX NSCLC): 868 nM
GI50 (HCC-2998 colon): 49.7 nM
TGI (HCC-2998 colon): 32900 nM
GI50 (HCT-15 colon): < 25.8 nM
TGI (HCT-15 colon): > 42700 nM
GI50 (HL-60(TB) leukemia): 27.3 nM
TGI (HL-60(TB) leukemia): 33.6 nM and 80.7 nM
GI50 (HOP-18 NSCLC): > 100000 nM
TGI (HOP-18 NSCLC): > 100000 nM
GI50 (HOP-62 NSCLC): 45.4 nM
TGI (HS 578T breast): 93.4 nM
TGI (HT29 colon): 56.8 nM
GI50 (KM12 colon): < 19.6 nM
TGI (KM20L2 colon): 59 nM
GI50 (LOX IMVI melanoma): < 20.8 nM
TGI (LOX IMVI melanoma): > 100000 nM
GI50 (LXFL 529 NSCLC): < 22.4 nM
GI50 (M19-MEL melanoma): < 22.9 nM
TGI (MALME-3M melanoma): 53.7 nM
TGI (MDA-MB-435): 31.2 nM
TGI (MDA-N): < 15.9 nM
GI50 (MOLT-4 leukemia): < 22.2 nM
GI50 (NCI-H226 lung): < 17.5 nM
TGI (NCI-H226 lung): 29.2 nM and < 31.3 nM
GI50 (NCI-H23 lung): < 20.9 nM
GI50 (NCI-H460 lung): < 19.7 nM
TGI (NCI-H522 lung): 37.8 nM and 198 nM
TGI (NCI/ADR-RES ovarian): 58.9 nM
GI50 (OVCAR-3 ovarian): < 15.8 nM
TGI (OVCAR-3 ovarian): 76.7 nM
GI50 (OVCAR-4 ovarian): 7580 nM
TGI (OVCAR-5 ovarian): 52.2 nM
TGI (OVCAR-8 ovarian): 73.6 nM
GI50 (RPMI-8226 leukemia): < 20 nM
TGI (RXF 393 renal): 32.1 nM
TGI (RXF-631 renal): 56 nM
GI50 (SF-295 CNS): < 18.4 nM
TGI (SF-295 CNS): 46.5 nM
TGI (SF-539 CNS): 52.4 nM
GI50 (SK-MEL-2 melanoma): 321 nM
TGI (SK-MEL-28 melanoma): 73.3 nM
GI50 (SK-MEL-5 melanoma): 40 nM
GI50 (SK-OV-3 ovarian): < 17.6 nM
GI50 (SN12C renal): < 27 nM
GI50 (SNB-19 CNS): 69.3 nM
GI50 (SW-620 colon): < 18.7 nM
GI50 (TK-10 renal): 10500 nM
GI50 (U251 CNS): < 18.5 nM
TGI (U251 CNS): > 64400 nM
TGI (UACC-257 melanoma): 43.4 nM
GI50 (XF 498 CNS): < 25.1 nM

COC(=O)C1(C(C)C)CCc2c(OC)ccc(OC)c2C1=O (stereo not drawn)
TGI (786-0 renal): > 100000 nM
TGI (A498 renal): > 100000 nM
TGI (A549 NSCLC): > 100000 nM
TGI (ACHN renal): > 100000 nM
TGI (CAKI-1 renal): > 100000 nM
TGI (CCRF-CEM leukemia): > 100000 nM
TGI (COLO 205 colon): > 100000 nM
TGI (DLD-1 colon): > 100000 nM
TGI (DMS 114 small cell lung): > 100000 nM
TGI (EKVX NSCLC): > 100000 nM
TGI (HCC-2998 colon): > 100000 nM
TGI (HCT-116 colon): > 100000 nM
TGI (HCT-15 colon): > 100000 nM
TGI (HL-60(TB) leukemia): > 100000 nM
TGI (HOP-18 NSCLC): > 100000 nM
TGI (HOP-62 NSCLC): > 100000 nM
TGI (HT29 colon): > 100000 nM
TGI (IGROV1 ovarian): > 100000 nM
TGI (K-562 leukemia): > 100000 nM
TGI (KM12 colon): > 100000 nM
TGI (KM20L2 colon): > 100000 nM
TGI (LOX IMVI melanoma): > 100000 nM
TGI (LXFL 529 NSCLC): > 100000 nM
TGI (M14 melanoma): > 100000 nM
TGI (M19-MEL melanoma): > 100000 nM
TGI (MALME-3M melanoma): > 100000 nM
TGI (MOLT-4 leukemia): > 100000 nM
TGI (NCI-H460 lung): > 100000 nM
TGI (NCI-H522 lung): > 100000 nM
TGI (OVCAR-3 ovarian): > 100000 nM
TGI (OVCAR-4 ovarian): > 100000 nM
TGI (OVCAR-5 ovarian): > 100000 nM
TGI (OVCAR-8 ovarian): > 100000 nM
TGI (RPMI-8226 leukemia): > 100000 nM
TGI (SF-268 CNS): > 100000 nM
TGI (SF-295 CNS): > 100000 nM
TGI (SF-539 CNS): > 100000 nM
TGI (SK-MEL-2 melanoma): > 100000 nM
TGI (SK-MEL-28 melanoma): > 100000 nM
TGI (SK-MEL-5 melanoma): > 100000 nM
TGI (SK-OV-3 ovarian): > 100000 nM
TGI (SN12C renal): > 100000 nM
TGI (SNB-19 CNS): > 100000 nM
TGI (SNB-78 CNS): > 100000 nM
TGI (SW-620 colon): > 100000 nM
TGI (TK-10 renal): > 100000 nM
TGI (U251 CNS): > 100000 nM
TGI (UACC-257 melanoma): > 100000 nM
TGI (UACC-62 melanoma): > 100000 nM
TGI (UO-31 renal): > 100000 nM
TGI (XF 498 CNS): > 100000 nM
